Measurements: patent US20080139493A1, “Bi- or Tetra-Guanidino-Biphenyl Compounds as Small Molecule Carriers” (priority 2004, published 2008)

What was measured:
[1] = system: Human osteosarcoma cells (U2OS); test: Uptake and sub-cellular localization by confocal microscopy; format: cell-based; conditions: 10 μM, 10 minutes incubation, no fixation
Experimental: In order to observe the ability of the di-guanidine and tetra-guanidine compounds to transport small molecules, they were coupled to FITC, which emits light at 514 nm after laser excitation at 492 nm. Human osteosarcoma cells (U2OS) were cultured on glass coverslips and incubated for 10 minutes with each compound to a final concentration of 10 μM. They were compared to FITC conjugated to TAT and FITC alone. After incubation, cells were rinsed in PBS and mounted, without fixation, onto slides and visualized by confocal microscopy. […] Cells were visualized under higher magnification (63×), to assess sub-cellular localization of the FITC.

U2OS cells = test: Delivery of FITC, FACS analysis of live cells; format: cell-based, human; conditions: 10 µM, 15 minutes
Experimental: The efficiency of delivery of FITC by these guanidine carriers was tested by FACS analysis. U2OS cells were treated with at a concentration of 10 µM with each of the compounds indicated for 15 minutes, and then harvested by trypsinization, and washed in PBS. The live cells were then subjected to FACS analysis.

[2] = system: CD3+ cells from peripheral blood mononuclear cells; test: Delivery of FITC to primary suspension cells, FACS analysis; format: cell-based; conditions: primary human CD3+ cells, 10 µM, 15 minutes
Experimental: To determine whether SMCs deliver small molecules to primary human cells, CD3+ cells were isolated by MACS separation from freshly harvested peripheral blood mononuclear cells. This purified cell population was treated with 10 µM of each compound for 15 minutes. Cells were then washed in PBS and analyzed by FACS.

NIH3T3 fibroblasts [3] = test: Uptake of Geminin-SMC conjugate, anti-Geminin immunofluorescence; format: cell-based, mouse; conditions: 10 μM, one hour
Experimental: (§1) A) NIH3T3 fibroblasts were incubated for one hour with 10 μM recombinant His6-Geminin or 10 μM Geminin-SMC conjugate. Cells were fixed, permeabilised and stained with a polyclonal rabbit anti-Geminin primary, a FITC-conjugated anti-rabbit secondary and counterstained with DAPI. […] B) NIH3T3 fibroblasts were driven into quiescence by density-dependent growth arrest and after 5 days were released back into the cell cycle by subculturing into fresh growth medium. 8 hours after release from quiescence 10 μM of Geminin-SMC was added to the cells. At 21 hours following release cells were pulse-labelled for one hour with 50 μM BrdU. Subsequently cells were fixed, permeabilised and stained with FITC-conjugated anti-BrdU and counterstained with propidium iodide. In a control population 68% of cells were able to re-enter the cell cycle following release whilst in the presence of Geminin-SMC replication dropped by 47% respectively.

NIH3T3 fibroblasts [4] = test: S-phase assay (cellular DNA synthesis, BrdU incorporation); format: cell-based, mouse
Experimental: as §1
Essentially the system is set up as follows: Mouse or human fibroblasts are arrested in quiescence (G0) by contact inhibition.
The quiescent fibroblasts are then subcultured at lower density to release fibroblasts from G0. Re-entry into the DNA synthesis phase (S phase) occurs 21 hours after the release. Pre-replicative complexes (pre-RCs) essential for unwinding of the DNA helix prior to DNA synthesis are assembled at replication origins 16-18 hrs after the release from G0.
One sample of cells is untreated and the other is treated by exposure to an SMC-conjugate according to the present invention. Treatment takes place before pre-RC assembly, preferably at 5-10 hours after release from G0.
The ability of cells to start S phase is monitored with a BrdU pulse at 21 hours. BrdU becomes incorporated into DNA during DNA synthesis and is thus a marker for entry into S phase. BrdU incorporation is then assayed and treated cells are compared with non-treated cells.
For synchronisation in G0, NIH3T3 fibroblasts are seeded at high density and driven into density-dependent growth arrest. […]
DNA synthesis is monitored by pulse labelling cells 21 h after release from G0 for 1 h with 50 μM BrdU. […]
The percentage of cells undergoing DNA replication is determined from images obtained by confocal fluorescence microscopy on a Leica TCS SP confocal microscope. […]
Plasmids expressing […] are microinjected into the nuclei of NIH3T3 fibroblasts at the treatment time 8 hours after release from density-dependent growth arrest in G0. The ability of cells to initiate DNA replication was assessed by pulse labelling cells 19 hours after release from G0 for 1 hour with bromodeoxyuridine (BrdU). Expression of E1̂E4 protein and incorporation of BrdU was monitored by confocal immunofluorescence microscopy. […]

N=C(N)NCCOc1c(CNC(=S)Nc2ccc3c(c2)C(=O)OC32c3ccc(O)cc3Oc3cc(O)ccc32)ccc(-c2ccccc2)c1OCCNC(=N)N [di-guanidine-FITC, 2-[2,3-bis(2-guanidino-ethyloxy)-biphenyl-4-ylmethyl]-thioureido-fluorescein]
sub-cellular localization of the FITC at higher magnification (63×) [1]: both nuclear and cytoplasmic fluorescence
cells fluorescent above the background auto-fluorescence (U2OS cells): 80%
cells fluorescent [2]: 88%

N=C(N)NCCOc1cccc(-c2ccc(CNC(=S)Nc3ccc4c(c3)C(=O)OC43c4ccc(O)cc4Oc4cc(O)ccc43)c(OCCNC(=N)N)c2OCCNC(=N)N)c1OCCNC(=N)N [tetra-guanidine-FITC, [2,3,2′,3′-Tetra(2-guanidino-ethyloxy)-biphenyl-4-ylmethyl]-thioureido-fluorescein]
sub-cellular localization of the FITC at higher magnification (63×) [1]: intense nuclear fluorescence
cells fluorescent above the background auto-fluorescence (U2OS cells): 80%
cells fluorescent [2]: 62%

B1: Geminin-SMC: conjugate of a compound of formula Ic with the pre-RC assembly repressor protein Geminin (209 aa) (conjugate, UniProt O75496 1-209, looked up)
chain: MNPSMKQKQEEIKENIKNSSVPRRTLKMIQPSASGSLVGRENELSAGLSKRKHRNDHLTSTTSSPGVIVPESSENKNLGGVTQESFDLMIKENPSSQYWKEVAEKRRKALYEALKENEKLHKEIEQKDNEIARLKKENKELAEVAEHVQYMAELIERLNGEPLDNFESLDNQEFDSEEETVEDSLVEDSEIGTCAEGTVSSSTDAKPCI
modifications: full-length conjugated to SMC compound of formula Ic
FITC staining (anti-Geminin) within the cells (NIH3T3 fibroblasts [3]): strong FITC staining
drop of replication (BrdU incorporation) (NIH3T3 fibroblasts [4]; 10 μM added 8 hours after release from quiescence, BrdU pulse at 21 hours, control population 68% re-entered cell cycle): 47%
number of cells entering S phase (NIH3T3 fibroblasts [4]; 10 fM to 10 μM, treatment 8 hours after G0 release): dramatic reduction
DNA synthesis as monitored by S-phase assay (NIH3T3 fibroblasts [4]; treatment 8 hours after G0 release, BrdU pulse at 21 hours, concentration range per example (10 fM to 30 μM)): inhibits DNA synthesis
uptake of SMC-conjugate into the cells (NIH3T3 fibroblasts [4]; treatment 8 hours after G0 release, concentration range per example (10 fM to 30 μM)): efficiently taken into the cells

B2: His6-Geminin: recombinant His6-Geminin, unconjugated form of Geminin (protein, UniProt O75496 1-209, looked up)
Geminin: B1 chain
modifications: His6 tag
FITC staining (anti-Geminin) within the cells (NIH3T3 fibroblasts [3]): no FITC staining
